In patent US20030064380A1, “Anergy-regulated molecules” (The Center For Blood Research, Inc., priority 2001, published 2003):

Test system: caspase-3
Experiment: Western blotting of ionomycin-treated T cells
Format: cell-based, murine
Procedure: Total cellular extracts were prepared by boiling cell pellets directly in SDS containing loading buffer to prevent proteolysis during cell lysis. Antibodies against caspase-3 (Santa Cruz) and active caspase-3 (Cell Signaling) were used. The polyclonal antibody 67.1 against NFAT1 has been described (Okamura et al., (2000) Mol. Cell. 6: 539-550).
Of particular interest was the fact that several of the ionomycin-induced genes encoded proteins involved (or potentially involved) in protein degradation. Candidate genes in this category included caspase-3, SOCS-2 and Traf5 (FIG. 6B). Caspase-3 is an enzyme for which commercial reagents are readily available. Tests were conducted to determine whether caspase-3 was activated and functional in ionomycin-pretreated T cells. […] Further work will be necessary to establish whether proteolysis occurs in specific intracellular compartments relevant to TCR signal transduction or whether other signaling proteins are substrates for proteolysis in anergic cells.

C[C@H](CCC(=O)O)C[C@H](C)C[C@H](C)C(=O)/C=C(\O)[C@H](C)C[C@H](C)C/C=C/[C@@H](C)[C@@H](O)[C@@H](C)[C@@H](O)C[C@@H]1CC[C@@](C)([C@H]2CC[C@@](C)([C@@H](C)O)O2)O1 [Ionomycin, ionomycin]
caspase-3 protein (procaspase 3, p20 and active p17 forms) (ionomycin-treated T cells, 6 h to 16-18 h): induced at the protein level and activated | cleavage of Vav-1, Gads and PKC-theta (treated D5 cells, Western blots): minor cleavage
